In assay [1] the test system is CD4 T cells. Description: IL-2 ELISPOT of draining lymph node cells after immunization with MalE:insert protein. Type of assay: in vivo, mouse. The settings on record: mice immunized with MalE protein.
Assay [2] concerns peptide specific T cell hybridomas. In words: T cell hybridoma assay (IL-2 production, CTLL/MTT). Type of assay: cell-based, mouse.
Assay [3] relates to sI-A^d. The note with it: pH 5.3, 37° C., FITC peptide from sI-A^d.
In the next assay the test system is lymph node cells. In words: IL-2 ELISPOT after immunization with peptide (cross reactivity of WT and variant). Type of assay: in vivo, mouse. The note with it: mice immunized with WT or variant peptide.
Assay [4] has as its system sI-A^d. In words: Peptide competition with FITC-HA[126-138] for binding to soluble I-A^d. Further details: species or system mouse. The settings on record: 1 μM FITC-HA[126-138], 20 nM soluble I-A^d. How it is done: B. The percentage of inhibition of binding of 1 μM N-terminal FITC-HA[126-138] to sI-A^d by the unlabeled competitor peptide was plotted against the concentration of unlabeled inhibitory peptide. Data is represented as a Hill Plot (Hill, J Physiol 40, iv-vii, 1910), and is the average of 2 independent experiments
Soluble I-A^d (20 nM) and 1 μM FITC-HA[126-138] were used for competition assays, which is in the titratable range of peptide and class II molecules. Unlabeled competitor peptides at a final concentrations ranging between 0-500 μM were mixed, and after 16-20 h of incubation at 37° C., the sI-A^d-FITC-HA[126-138] complex was separated from free peptide and quantified as described above. Inhibition by competitor peptides was calculated using the Hill equation ((Hill, J Physiol 40, iv-vii, 1910), with the IC50 value the concentration of unlabeled competitor peptide required to achieve 50% inhibition of the labeled peptide binding to class II molecules.

Assay [5] has as its system CD4 T cells. Description: IL-2 ELISPOT after immunization with OVA protein. Type of assay: in vivo, mouse. The settings on record: mice immunized with OVA protein. The procedure: Groups of 2 BALB/c mice were immunized in the footpad with (A) 200 μg/mL OVA protein, (B) 200 μg/mL of the indicated MalE protein, or (D and E) 5 nmol of the indicated peptide emulsified in 50 μL PBS:CFA. The number of IL-2 producing cells at day 10 was determined by 16 h in vitro stimulation of CD4 purified cells with syngeneic spleen cells and (A) 200 μg/mL protein or 12.5 μM peptide, (B) 200 μg/mL protein or 5 μM peptide, or (D and E) the indicated amount of peptide and quantified using IL-2 ELISPOT assays with background subtracted. (A and D) Data represents the mean counts of two separate cell dilutions ([…] and 1.25×10^5) of triplicate wells normalized as indicated. […] Data are representative of at least 2 independent experiments.
To provide another example of a cryptic epitope that can gain immunodominance by simply changing its kinetic stability with I-A^d, one of the peptide registers contained within the prototypic I-A^d-restricted peptide OVA [323-339] (Jenkins et al., Annu Rev Immunol 19, 23-45, 2001; Sette et al., J Immunol 142, 35-40, 1988) was studied. Several studies (McFarland et al., Biochemistry 38, 16663-16670, 1999; Robertson et al., J Immunol 164, 4706-4712, 2000) have shown that this long peptide contains several alternative registers, including the most amino terminal segment that was co-crystallized with I-A^d (Scott et al., Immunity 1, 73-83, 1998). […]

Experimental findings from patent US20090269362A1, “Method for Controlling Immunodominance” (priority 2005, published 2009) are described below.

Chain of sI-A^d (P04228 24-111 limits assumed): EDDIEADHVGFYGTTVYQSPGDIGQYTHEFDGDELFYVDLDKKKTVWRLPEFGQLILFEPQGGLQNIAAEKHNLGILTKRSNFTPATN
Chain of sI-A^d (P01921 28-122 limits assumed, further chain): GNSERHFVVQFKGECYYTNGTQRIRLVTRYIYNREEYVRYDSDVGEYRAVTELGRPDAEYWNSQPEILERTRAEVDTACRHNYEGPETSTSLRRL

As for “A332I, I334V: OVA [327-339] variant with substitutions at P4 and P6 (AVHAAHIEVNEAG; UniProt P01012 327-339, looked up, variant A332I I334V)”, in the assay on CD4 T cells [1], the “immunogenicity of peptide within MalE (in words)” value (“immunogenicity” below) is recorded as “immunodominant peptide”. In addition, in assay [2] (peptide presented by I-A^d expressing cells), the “stimulation of specific T cell hybridoma by soluble peptide (in words)” value is on record as “recognized by the 3DO11.10 T cell hybridoma”. Also, the “t1/2 (half-life, kinetic stability) of peptide with I-A^d” value (shortened to “t1/2 (half-life, kinetic stability)”) in the assay with sI-A^d [3] is “greater than 80 h”. The “cross reactivity between WT and variant peptide after peptide immunization (in words)” value in the assay with lymph node cells was “cross-reacted back onto the WT OVA peptide”.
As for AMKRHGLDNYRGYSL [HEL [11-25]], in the assay with sI-A^d [4], the “competition with HA [126-138] for binding to I-A^d (in words)” value is given as “competed well”. Also, the “immunogenicity” value with CD4 T cells [1] is recorded as “failure in immunogenicity”. Besides, the “reactivity of specific T cell hybridoma to peptide inserted into MalE (in words)” value in assay [2] (MalE:insert protein, BALB/c spleen as APCs) was “gained reactivity”. For the same substance, the “t1/2 (half-life, kinetic stability)” value in the assay with sI-A^d [3] is 6 h.
For the substance “HEL R14Q, G22S: HEL [11-25] variant with changes at P1 and P9 (AMKQHGLDNYRSYSL; UniProt P00698 29-43, looked up, variant R14Q G22S)”, the “immunogenicity” value in the assay on CD4 T cells [1] is on record as “remained non-immunogenic”. In addition, the “t1/2 (half-life, kinetic stability)” value in the assay with sI-A^d [3] stood at 11 h.
As for “HEL [20-35]: cryptic epitope of hen-egg lysozyme (YRGYSLGNWVCAAKFE; UniProt P00698 38-53, looked up, fragment)”, the “competition with HA [126-138] for binding to I-A^d (in words)” value in the assay on sI-A^d [4] is given as “competed poorly”. The “t1/2 (half-life, kinetic stability)” value with sI-A^d [3] is 4 h.
In the case of “OVA [273-288]: immunodominant I-Ad restricted epitope from chicken ovalbumin (VMEERKIKVYLPRMKM; UniProt P01012 273-288, looked up, fragment)”, the “t1/2 (half-life, kinetic stability)” value with sI-A^d [3] is 160 h.
As to “OVA [327-339]: carboxyterminal register of OVA [323-339] recognized by the 3DO11.10 T cell (AVHAAHAEINEAG; UniProt P01012 327-339, looked up, fragment)”, the “percent of T cells raised against OVA that recognize the peptide” value in the assay on CD4 T cells [5] was “Less than 1%”. The “t1/2 (half-life, kinetic stability)” value in the assay with sI-A^d [3] was determined as 0.3 h.
As to “R14Q, N19A, G22S: HEL [11-25] variant with changes at P1, P6, and P9 (AMKQHGLDAYRSYSL; UniProt P00698 29-43, looked up, variant R14Q N19A G22S)”, in the assay with CD4 T cells [1], the “immunogenicity” value is “significant gain in immunogenicity”. Besides, the “t1/2 (half-life, kinetic stability)” value with sI-A^d [3] was 35 h. In addition, the “cross reactivity between WT and variant peptide after peptide immunization (in words)” value with lymph node cells is recorded as “a significant portion of the T cells elicited were non-reactive with the WT HEL peptide”.
